Among the data in patent US5034512A, “Branched backbone renin inhibitors” (Warner-Lambert Company, priority 1988, dated 1991) are inhibition and IC50 values, retold here.

One assay deals with T1, renin (Homo sapiens, UniProt P00797).
T1 sequence (P00797 67-406): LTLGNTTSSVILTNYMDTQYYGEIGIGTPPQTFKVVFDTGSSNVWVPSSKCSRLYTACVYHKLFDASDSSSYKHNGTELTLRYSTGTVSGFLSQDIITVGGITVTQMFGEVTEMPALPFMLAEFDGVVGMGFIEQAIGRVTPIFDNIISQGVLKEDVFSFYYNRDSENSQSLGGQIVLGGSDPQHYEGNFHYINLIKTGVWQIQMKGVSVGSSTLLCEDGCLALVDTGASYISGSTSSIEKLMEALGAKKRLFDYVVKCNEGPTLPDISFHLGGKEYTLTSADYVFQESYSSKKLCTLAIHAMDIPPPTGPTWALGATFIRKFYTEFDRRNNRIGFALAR
As to the kind of experiment: in vitro renin inhibitory activity, radioimmunoassay for angiotensin I. It counts as biochemical. As to conditions: 10^-6 M test compound; renin incubated two hours at 37° with angiotensinogen. On the procedure:
The effectiveness of the aforementioned compound is determined by a test for in vitro renin inhibitory activity. This activity is determined by a standard radioimmunoassay for angiotensin I. In this assay the enzyme, renin, incubated for two hours at 37° in the presence of a substrate, angiotensinogen, generates the product, angiotensin I. Test compounds are added to the incubation mixture. Relative activity is reported as the IC50, which is the molar concentration of test compound causing a 50% inhibition of the renin activity. Relative activity is also reported as % inhibition at 10^-6 M,
In the case of `CNC(=O)CCNC(=O)C[C@H](NC(=O)C(Cc1cccc2ccccc12)Cc1cccc2ccccc12)C(=O)N[C@@H](CC1CCCCC1)[C@@H](O)CC(=O)N[C@@H](CC(C)C)C(=O)NCc1ccccc1` [Example 6], the inhibition (usually the percentage by which the read-out fell short of the control) at 1 µM was 47%.

The assay is the same for the next values; noted with them: renin incubated two hours at 37° with angiotensinogen; read-out: IC50 (molar concentration of test compound causing a 50% inhibition of the renin activity).
As for `CC[C@H](C)CNC(=O)C[C@H](O)[C@H](CC(C)C)NC(=O)[C@H](CCC(=O)NCC(=S)NC)NC(=O)C(Cc1cccc2ccccc12)Cc1cccc2ccccc12` [Example 1], the IC50 is 9000 nM.
In the case of `CC[C@H](C)CNC(=O)C[C@H](O)[C@H](CC(C)C)NC(=O)[C@H](CCCCNC(=O)[C@@H]1CS(=O)(=O)CN1C(C)=O)NC(=O)C(Cc1cccc2ccccc12)Cc1cccc2ccccc12` [Example 14], the IC50 stood at 470 nM.
`CC[C@H](C)CNC(=O)C[C@H](O)[C@H](CC(C)C)NC(=O)[C@H](CCCCNC(=O)[C@@H]1CSCN1C(C)=O)NC(=O)C(Cc1cccc2ccccc12)Cc1cccc2ccccc12` [Example 13]: the IC50 worked out at 1100 nM.
On the same count and under the same terms, under `CC[C@H](C)CNC(=O)C[C@H](O)[C@H](CC(C)C)NC(=O)[C@H](CCCCNC(=O)CNC(=O)OCc1ccccc1)NC(=O)C(Cc1cccc2ccccc12)Cc1cccc2ccccc12` [Example 8] stands 83 nM; under `CC[C@H](C)CNC(=O)C[C@H](O)[C@H](CC1CCCCC1)NC(=O)[C@H](CCCCNC(=O)CNC(C)=O)NC(=O)C(Cc1cccc2ccccc12)Cc1cccc2ccccc12` [Example 12], 27 nM; under `CNC(=S)CNC(=O)C[C@H](NC(=O)C(Cc1cccc2ccccc12)Cc1cccc2ccccc12)C(=O)N[C@@H](CC1CCCCC1)[C@@H](O)CC(=O)N[C@@H](CC(C)C)C(=O)NCc1ccccc1` [Example 5], 240 nM.
Regarding `CC[C@H](C)CNC(=O)C[C@H](O)[C@H](CC(C)C)NC(=O)[C@H](CCCCNC(=O)CNC(=S)NC)NC(=O)C(Cc1cccc2ccccc12)Cc1cccc2ccccc12` [Example 10], the IC50 was 80 nM.
On the same count and under the same terms, as for `CC[C@H](C)CNC(=O)C[C@H](O)[C@H](CC(C)C)NC(=O)[C@H](CCCCNC(=O)CNC(N)=N[N+](=O)[O-])NC(=O)C(Cc1cccc2ccccc12)Cc1cccc2ccccc12` [Example 19], the figure is 8 nM; as for `CC[C@H](C)CNC(=O)C[C@H](O)[C@H](CC(C)C)NC(=O)[C@H](CCCCNC(=O)CN)NC(=O)C(Cc1cccc2ccccc12)Cc1cccc2ccccc12` [Example 9], 710 nM; as for `COC(=O)[C@H](CCS(C)(=O)=O)NC(=O)C[C@H](NC(=O)C(Cc1cccc2ccccc12)Cc1cccc2ccccc12)C(=O)N[C@@H](CC1CCCCC1)[C@@H](O)CC(=O)N[C@@H](CC(C)C)C(=O)NCc1ccccc1` [Example 3], 3500 nM.
Take `CC[C@H](C)CNC(=O)C[C@H](O)[C@H](CC(C)C)NC(=O)[C@H](CCCCNC(=O)CNC(=O)C(C)C)NC(=O)C(Cc1cccc2ccccc12)Cc1cccc2ccccc12` [Example 17]: the IC50 worked out at 74 nM.
As for `CC[C@H](C)CNC(=O)C[C@H](O)[C@H](CC(C)C)NC(=O)[C@H](CCCCNC(=O)CNC(=O)C(F)F)NC(=O)C(Cc1cccc2ccccc12)Cc1cccc2ccccc12` [Example 18], the IC50 worked out at 62 nM.
Same read-out and setting: as for `CC[C@H](C)CNC(=O)C[C@H](O)[C@H](CC(C)C)NC(=O)[C@H](CCC(=O)NCC(=O)NC)NC(=O)C(Cc1cccc2ccccc12)Cc1cccc2ccccc12` [Example 2], the figure is 15000 nM; as for `CC[C@H](C)CNC(=O)C[C@H](O)[C@H](CC(C)C)NC(=O)[C@H](CCCCNC(=O)CNC(=NC#N)NC)NC(=O)C(Cc1cccc2ccccc12)Cc1cccc2ccccc12` [Example 20], 30 nM.
Take `CC[C@H](C)CNC(=O)C[C@H](O)[C@H](CC(C)C)NC(=O)[C@H](CCCCNC(=O)CCNC(C)=O)NC(=O)C(Cc1cccc2ccccc12)Cc1cccc2ccccc12` [Example 16]: the IC50 is 25 nM.
Still for that read-out and setting: under `CC[C@H](C)CNC(=O)C[C@H](O)[C@H](CC(C)C)NC(=O)[C@H](CCCCNC(=O)[C@@H]1CCC(=O)N1)NC(=O)C(Cc1cccc2ccccc12)Cc1cccc2ccccc12` [Example 15] stands 43 nM.
